Columns and labels:
Test in all cases: relative viability vs DMSO control (72 h) (fraction); higher = more viable cells
[1] = system: SW684
Procedure, shortened: (§1)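 Sarcoma cell lines were seeded in 384-well plates at densities chosen for 80–90% confluence, then 24 h later given 2.5 µl of serially diluted compound drawn from source plates spanning 10 mM to 0.0002 mM. They were held 72 h at 37 °C, 5% CO2, with 0.1% DMSO vehicle and a 5 µM positive control included. Relative viability was read with ATPLite as percent growth and averaged over up to triplicate wells. Rescaling placed full at 1 and none at 0.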

[2] = system: A204
Procedure, shortened: as §1

[3] = system: SK-ES-1
Procedure, shortened: as §1

[4] = system: G401
Procedure, shortened: as §1

[5] = system: SK-LMS-1
Procedure, shortened: as §1

[6] = system: HS729
Procedure, shortened: as §1

[7] = system: SW872
Procedure, shortened: as §1

[8] = system: MES-SA
Procedure, shortened: as §1

[9] = system: SYO-1
Procedure, shortened: as §1

[10] = system: SW1353
Procedure, shortened: as §1

[11] = system: SW982
Procedure, shortened: as §1

[12] = system: KHOS-240S
Procedure, shortened: as §1

CNC(=O)c1nnc(NC(=O)C2CC2)cc1Nc1cccc(-c2ncn(C)n2)c1OC
Details | relative viability
[1], 0.00017 µM | 1.16
[1], 0.00051 µM | 1.15
[1], 0.00152 µM | 1.18
[1], 0.00457 µM | 1.15
[1], 0.01372 µM | 1.17
[1], 0.04115 µM | 1.17
[1], 0.1235 µM | 1.18
[1], 0.3704 µM | 1.2
[1], 1.111 µM | 1.15
[1], 3.333 µM | 1.14
[1], 10 µM | 1.12
[2], 0.00017 µM | 1.1
[2], 0.00051 µM | 1.09
[2], 0.00152 µM | 1.08
[2], 0.00457 µM | 1.06
[2], 0.01372 µM | 1.06
[2], 0.04115 µM | 1.06
[2], 0.1235 µM | 1.07
[2], 0.3704 µM | 1.09
[2], 1.111 µM | 1.11
[2], 3.333 µM | 1.01
[2], 10 µM | 0.714
[3], 0.00017 µM | 1.03
[3], 0.00051 µM | 1.03
[3], 0.00152 µM | 1.1
[3], 0.00457 µM | 1.03
[3], 0.01372 µM | 1.07
[3], 0.04115 µM | 1.04
[3], 0.1235 µM | 1.02
[3], 0.3704 µM | 1.04
[3], 1.111 µM | 0.968
[3], 3.333 µM | 0.891
[3], 10 µM | 0.517
[4], 0.00017 µM | 1
[4], 0.00051 µM | 0.988
[4], 0.00152 µM | 1.03
[4], 0.00457 µM | 1.03
[4], 0.01372 µM | 1.074
[4], 0.04115 µM | 1.02
[4], 0.1235 µM | 1.04
[4], 0.3704 µM | 1.031
[4], 1.111 µM | 1.013
[4], 3.333 µM | 0.999
[4], 10 µM | 0.906
[5], 0.00017 µM | 1.09
[5], 0.00051 µM | 1.09
[5], 0.00152 µM | 1.06
[5], 0.00457 µM | 1.08
[5], 0.01372 µM | 1.1
[5], 0.04115 µM | 1.06
[5], 0.1235 µM | 1.08
[5], 0.3704 µM | 1.06
[5], 1.111 µM | 1.05
[5], 3.333 µM | 1.06
[5], 10 µM | 0.797
[6], 0.00017 µM | 0.934
[6], 0.00051 µM | 0.925
[6], 0.00152 µM | 0.869
[6], 0.00457 µM | 0.885
[6], 0.01372 µM | 0.9
[6], 0.04115 µM | 0.931
[6], 0.1235 µM | 0.906
[6], 0.3704 µM | 0.8552
[6], 1.111 µM | 0.86
[6], 3.333 µM | 0.84
[6], 10 µM | 0.761
[7], 0.00017 µM | 1.01
[7], 0.00051 µM | 1
[7], 0.00152 µM | 0.995
[7], 0.00457 µM | 1.026
[7], 0.01372 µM | 1.01
[7], 0.04115 µM | 1.02
[7], 0.1235 µM | 1.03
[7], 0.3704 µM | 1.02
[7], 1.111 µM | 1.02
[7], 3.333 µM | 0.957
[7], 10 µM | 0.768
[8], 0.00017 µM | 0.926
[8], 0.00051 µM | 0.938
[8], 0.00152 µM | 0.926
[8], 0.00457 µM | 0.92
[8], 0.01372 µM | 0.943
[8], 0.04115 µM | 0.952
[8], 0.1235 µM | 0.944
[8], 0.3704 µM | 0.943
[8], 1.111 µM | 0.923
[8], 3.333 µM | 0.891
[8], 10 µM | 0.669
[9], 0.00017 µM | 0.958
[9], 0.00051 µM | 0.969
[9], 0.00152 µM | 0.924
[9], 0.00457 µM | 0.937
[9], 0.01372 µM | 0.952
[9], 0.04115 µM | 0.935
[9], 0.1235 µM | 0.924
[9], 0.3704 µM | 0.888
[9], 1.111 µM | 0.928
[9], 3.333 µM | 0.983
[9], 10 µM | 0.918
[10], 0.00017 µM | 0.962
[10], 0.00051 µM | 0.988
[10], 0.00152 µM | 0.968
[10], 0.00457 µM | 1
[10], 0.01372 µM | 0.985
[10], 0.04115 µM | 0.982
[10], 0.1235 µM | 0.978
[10], 0.3704 µM | 0.964
[10], 1.111 µM | 0.948
[10], 3.333 µM | 0.9937
[10], 10 µM | 0.911
[11], 0.00017 µM | 1.05
[11], 0.00051 µM | 1.06
[11], 0.00152 µM | 1.05
[11], 0.00457 µM | 1.04
[11], 0.01372 µM | 1.05
[11], 0.04115 µM | 1.06
[11], 0.1235 µM | 1.06
[11], 0.3704 µM | 1.07
[11], 1.111 µM | 1.06
[11], 3.333 µM | 1.02
[11], 10 µM | 0.722
[12], 0.00017 µM | 1.08
[12], 0.00051 µM | 1.07
[12], 0.00152 µM | 1.059
[12], 0.00457 µM | 1.05
[12], 0.01372 µM | 1.07
[12], 0.04115 µM | 1.04
[12], 0.1235 µM | 1.06
[12], 0.3704 µM | 1.07
[12], 1.111 µM | 1.08
[12], 3.333 µM | 1.06
[12], 10 µM | 1.03
